33 compounds from patent publication US20260234129A1, “NOVEL IMIDAZOLE DERIVATIVE AND USE THEREOF” (PELEMED CO., LTD., priority 2023, published 2026) can be followed below.

Usually GI50 stands for the concentration giving 50% growth inhibition.

Each structure is given as a SMILES string.

The experiment deals with MV4-11 cells (FLT3-ITD-expressing AML cell line). Kind of experiment: Cell proliferation inhibition, Alamar Blue. It is filed as cell-based, human. Particulars: Homo sapiens, MV4-11, 72 hours of compound treatment, read-out: Cellular (GI50) MV4-11. Here is the method:
The cell proliferation inhibition experiment on acute myeloid leukemia (AML) cell lines was performed using FL3-ITD-expressing AML cell line MV4-11, BaF3-ITD-FLT3 F691L cell line, and BaF3-ITD-FLT3 D835Y cell line to test FLT3 inhibitory activity. All cell lines were human-derived cell lines, and the sources and culture conditions for each cell line are as follows.
Cell viability was assessed by a resazurin redox-based assay using the Alamar Blue Assay kit (Invitrogen, USA). Specifically, MV4-11, BaF3-ITD-FLT3-F691L, and BaF3-ITD-FLT3-D835Y cells were plated in 384-well plates at 8,000 cells in 45 μL of medium. As a negative control, dimethyl sulfoxide (DMSO) was added together with the compound. After three days (72 hours) of compound treatment, 5 μL of the Alamar Blue kit reagent was added to each well of the 384-well plates, followed by incubation at 37° C. for 2 hours in a humidified CO2 incubator. After incubation, fluorescence intensity (Flu) was measured at 544 nm and 590 nm using a SpectraMax iD3 Multi Mode Microplate Reader (Molecular Devices, ID3-STD).
(Alamar Blue is a resazurin reagent that responds to reducing activity.)
Regarding `CN(C)CCNC(=O)c1ccc2[nH]nc(-c3nc4ccc(F)cc4[nH]3)c2c1` [Example 35, N-(2-(dimethylamino)ethyl)-3-(6-fluoro-1H-benzo[d]imidazol-2-yl)-1H-indazole-5-carboxamide], the GI50 lay within 10 to 100 nM.
For `NCCCNC(=O)c1ccc2[nH]nc(-c3ncc(-c4ccc(Cl)c(F)c4)[nH]3)c2c1` [Example 85, N-(3-aminopropyl)-3-(5-(4-chloro-3-fluorophenyl)-1H-imidazol-2-yl)-1H-indazole-5-carboxamide], the GI50 fell in the range of 10 to 100 nM.
Turning to `Nc1ccc(NC(=O)c2ccc3[nH]nc(-c4nc5ccc(N6CCOCC6)cc5[nH]4)c3c2)cc1` [Example 72, N-(4-aminophenyl)-3-(6-morpholino-1H-benzo[d]imidazol-2-yl)-1H-indazole-5-carboxamide], the GI50 lay within 10 to 100 nM.
Then `O=C(c1ccc2[nH]nc(-c3nc4ccc(N5CCOCC5)cc4[nH]3)c2c1)N1C[C@@H]2C[C@H]1CN2` [Example 66, ((1S,4S)-2,5-diazabicyclo[2.2.1]heptan-2-yl)(3-(6-morpholino-1H-benzo[d]imidazol-2-yl)-1H-indazol-5-yl)methanone], with 10 to 100 nM; and `CC(=O)N1CC(CNC(=O)c2ccc3[nH]nc(-c4nc5ccc(N6CCOCC6)cc5[nH]4)c3c2)C1` [Example 61, N-((1-acetylazetidin-3-yl)methyl)-3-(6-morpholino-1H-benzo[d]imidazol-2-yl)-1H-indazole-5-carboxamide], with greater than 1000 nM.
With `CN(C)CCn1c(-c2n[nH]c3ccc(C(=O)NCCCN)cc23)nc2ccc(F)cc21` [Example 107, N-(3-aminopropyl)-3-(1-(2-(dimethylamino)ethyl)-6-fluoro-1H-benzo[d]imidazol-2-yl)-1H-indazole-5-carboxamide] the figure was greater than 1000 nM; with `COc1c(Cl)cc(Cl)cc1-c1cnc(-c2n[nH]c3ccc(C(=O)NCCCN)cc23)[nH]1` [Example 87, N-(3-aminopropyl)-3-(5-(3,5-dichloro-2-methoxyphenyl)-1H-imidazol-2-yl)-1H-indazole-5-carboxamide], 10 to 100 nM; with `NCCCNC(=O)c1ccc2[nH]nc(-c3nc4ccc(Cl)cc4[nH]3)c2c1` [Example 27, N-(3-aminopropyl)-3-(6-chloro-1H-benzo[d]imidazol-2-yl)-1H-indazole-5-carboxamide], 10 to 100 nM.
In the case of `CN1CCN(CCn2c(-c3n[nH]c4ccc(C(=O)NCCCN)cc34)nc3ccc(F)cc32)CC1` [Example 108, N-(3-aminopropyl)-3-(6-fluoro-1-(2-(4-methylpiperazin-1-yl)ethyl)-1H-benzo[d]imidazol-2-yl)-1H-indazole-5-carboxamide], the GI50 is greater than 1000 nM.
With `NCCCNC(=O)c1ccc2[nH]nc(-c3ncc(-c4cccc(O)c4)[nH]3)c2c1` [Example 92, N-(3-aminopropyl)-3-(5-(3-hydroxyphenyl)-1H-imidazol-2-yl)-1H-indazole-5-carboxamide] the figure was 100 to 1000 nM; with `NCCCNC(=O)c1ccc2[nH]nc(-c3nc4cccc(F)c4[nH]3)c2c1` [Example 25, N-(3-aminopropyl)-3-(7-fluoro-1H-benzo[d]imidazol-2-yl)-1H-indazole-5-carboxamide], 10 to 100 nM.
`CN(C)CCCNC(=O)c1ccc2[nH]nc(-c3nc4cc(F)c(F)cc4[nH]3)c2c1` [Example 9, 3-(5,6-difluoro-1H-benzo[d]imidazol-2-yl)-N-(3-(dimethylamino)propyl)-1H-indazole-5-carboxamide]: the GI50 is 10 to 100 nM.
Take `NCCCNC(=O)c1ccc2[nH]nc(-c3ncc(COc4ccccc4)[nH]3)c2c1` [Example 115, N-(3-aminopropyl)-3-(5-(phenoxymethyl)-1H-imidazol-2-yl)-1H-indazole-5-carboxamide]: the GI50 is greater than 1000 nM.
Then `NCCCNC(=O)c1ccc2[nH]nc(-c3nc(C(N)=O)c(-c4ccccc4)[nH]3)c2c1` [Example 113, N-(3-aminopropyl)-3-(4-carbamoyl-5-phenyl-1H-imidazol-2-yl)-1H-indazole-5-carboxamide], with 100 to 1000 nM; and `COCc1cnc(-c2n[nH]c3ccc(C(=O)NCCCN)cc23)[nH]1` [Example 114, N-(3-aminopropyl)-3-(5-(methoxymethyl)-1H-imidazol-2-yl)-1H-indazole-5-carboxamide], with greater than 1000 nM; and `CC(=O)NCCCNC(=O)c1ccc2[nH]nc(-c3nc4ccc(N5CCCCC5)cc4[nH]3)c2c1` [Example 33, N-(3-acetamidopropyl)-3-(6-(piperidin-1-yl)-1H-benzo[d]imidazol-2-yl)-1H-indazole-5-carboxamide], with less than 10 nM.
On to `CN(C)CCOc1ccc2nc(-c3n[nH]c4ccc(C(=O)NCCCN)cc34)[nH]c2c1` [Example 24, N-(3-aminopropyl)-3-(6-(2-(dimethylamino)ethoxy)-1H-benzo[d]imidazol-2-yl)-1H-indazole-5-carboxamide], for which the GI50 was in the range of 100 to 1000 nM.
Then `O=C(c1ccc2[nH]nc(-c3nc(-c4ccccc4)c[nH]3)c2c1)N1CCN(c2ccc(F)cc2)CC1` [Example 97, (4-(4-fluorophenyl)piperazin-1-yl)(3-(4-phenyl-1H-imidazol-2-yl)-1H-indazol-5-yl)methanone], with greater than 1000 nM; and `CN(C)CCNC(=O)c1ccc2[nH]nc(-c3nc(-c4ccccc4)c[nH]3)c2c1` [Example 95, N-(2-(dimethylamino)ethyl)-3-(4-phenyl-1H-imidazol-2-yl)-1H-indazole-5-carboxamide], with 100 to 1000 nM; and `CN(C)CCCNC(=O)c1ccc2[nH]nc(-c3nc4ccc(C#N)cc4[nH]3)c2c1` [Example 10, 3-(6-cyano-1H-benzo[d]imidazol-2-yl)-N-(3-(dimethylamino)propyl)-1H-indazole-5-carboxamide], with 100 to 1000 nM.
For the compound `NCCCNC(=O)c1ccc2[nH]nc(-c3ncc(-c4ccc(C(F)(F)F)cc4)[nH]3)c2c1` [Example 86, N-(3-aminopropyl)-3-(5-(4-(trifluoromethyl)phenyl)-1H-imidazol-2-yl)-1H-indazole-5-carboxamide], the GI50 was in the range of 10 to 100 nM.
With `COc1cccc(-c2cnc(-c3n[nH]c4ccc(C(=O)NCCCN)cc34)[nH]2)c1` [Example 88, N-(3-aminopropyl)-3-(5-(3-methoxyphenyl)-1H-imidazol-2-yl)-1H-indazole-5-carboxamide] the figure was 10 to 100 nM; with `COCCn1c(-c2n[nH]c3ccc(C(=O)NCCCN)cc23)nc2ccc(F)cc21` [Example 106, N-(3-aminopropyl)-3-(6-fluoro-1-(2-methoxyethyl)-1H-benzo[d]imidazol-2-yl)-1H-indazole-5-carboxamide], greater than 1000 nM.
With `NCCCNC(=O)c1ccc2[nH]nc(-c3ncc(-c4cccc(N)c4)[nH]3)c2c1` [Example 93, 3-(5-(3-aminophenyl)-1H-imidazol-2-yl)-N-(3-aminopropyl)-1H-indazole-5-carboxamide] the figure was 100 to 1000 nM; with `NC1CCN(CCNC(=O)c2ccc3[nH]nc(-c4nc(-c5ccccc5)c[nH]4)c3c2)CC1` [Example 103, N-(2-(4-aminopiperidin-1-yl)ethyl)-3-(4-phenyl-1H-imidazol-2-yl)-1H-indazole-5-carboxamide], greater than 1000 nM.
Then `CC(C)n1c(-c2n[nH]c3ccc(C(=O)NCCCN)cc23)nc2ccc(F)cc21` [Example 105, N-(3-aminopropyl)-3-(6-fluoro-1-isopropyl-1H-benzo[d]imidazol-2-yl)-1H-indazole-5-carboxamide], with greater than 1000 nM; and `CN1CCN(C2CCN(C(=O)c3ccc4[nH]nc(-c5nc6ccc(F)cc6[nH]5)c4c3)CC2)CC1` [Example 34, (3-(6-fluoro-1H-benzo[d]imidazol-2-yl)-1H-indazol-5-yl)(4-(4-methylpiperazin-1-yl)piperidin-1-yl)methanone], with greater than 1000 nM.
For `NC1CCN(CCNC(=O)c2ccc3[nH]nc(-c4nc5ccccc5[nH]4)c3c2)CC1` [Example 8, N-(2-(4-aminopiperidin-1-yl)ethyl)-3-(1H-benzo[d]imidazol-2-yl)-1H-indazole-5-carboxamide], the GI50 was 10 to 100 nM.
Then `NCCN1CCC(NC(=O)c2ccc3[nH]nc(-c4nc5ccccc5[nH]4)c3c2)CC1` [Example 112, N-(1-(2-aminoethyl)piperidin-4-yl)-3-(1H-benzo[d]imidazol-2-yl)-1H-indazole-5-carboxamide], with 10 to 100 nM; and `NCCNC(=O)c1ccc2[nH]nc(-c3nc4ccc(F)cc4[nH]3)c2c1` [Example 37, N-(2-aminoethyl)-3-(6-fluoro-1H-benzo[d]imidazol-2-yl)-1H-indazole-5-carboxamide], with 10 to 100 nM; and `C[C@@H]1CN(c2ccc3nc(-c4n[nH]c5ccc(C(=O)NCCCN)cc45)[nH]c3c2)C[C@H](C)N1` [Example 19, N-(3-aminopropyl)-3-(6-((3S,5R)-3,5-dimethylpiperazin-1-yl)-1H-benzo[d]imidazol-2-yl)-1H-indazole-5-carboxamide], with 100 to 1000 nM.
For the compound `CN(C)CCCNC(=O)c1ccc2[nH]nc(-c3nc4ccc(F)cc4[nH]3)c2c1` [Example 36, N-(3-(dimethylamino)propyl)-3-(6-fluoro-1H-benzo[d]imidazol-2-yl)-1H-indazole-5-carboxamide], the GI50 is 10 to 100 nM.
`CNC1CCN(C(=O)c2ccc3[nH]nc(-c4nc5ccc(N6CCOCC6)cc5[nH]4)c3c2)CC1` [Example 70, (4-(methylamino)piperidin-1-yl)(3-(6-morpholino-1H-benzo[d]imidazol-2-yl)-1H-indazol-5-yl)methanone]: the GI50 is 10 to 100 nM.
